Data on 24 molecules can be found in patent US10526311B2 (ASTEX THERAPEUTICS LIMITED, priority 2015, dated 2020).

Where two headings read alike, the source gives them in different places.

One assay relates to SJSA-1. In words: Protocol B: SJSA-1 CellTiter-Glo cell viability. For orientation: ATP-based viability assays read luminescence as a measure of living cells.
The subject of another assay is SN40R2. The experiment in a line: Protocol B: SN40R2 CellTiter-Glo cell viability. Particulars: 72 h.
For assay [1], the target named is MDM2-p53 interaction (in vitro translated MDM2, biotinylated IP3 peptide) (Homo sapiens, UniProt Q00987). In words: MDM2-p53 interaction 96-well plate binding assay (ELISA).
MDM2-p53 interaction (in vitro translated MDM2, biotinylated IP3 peptide), sequence (Q00987 whole entry): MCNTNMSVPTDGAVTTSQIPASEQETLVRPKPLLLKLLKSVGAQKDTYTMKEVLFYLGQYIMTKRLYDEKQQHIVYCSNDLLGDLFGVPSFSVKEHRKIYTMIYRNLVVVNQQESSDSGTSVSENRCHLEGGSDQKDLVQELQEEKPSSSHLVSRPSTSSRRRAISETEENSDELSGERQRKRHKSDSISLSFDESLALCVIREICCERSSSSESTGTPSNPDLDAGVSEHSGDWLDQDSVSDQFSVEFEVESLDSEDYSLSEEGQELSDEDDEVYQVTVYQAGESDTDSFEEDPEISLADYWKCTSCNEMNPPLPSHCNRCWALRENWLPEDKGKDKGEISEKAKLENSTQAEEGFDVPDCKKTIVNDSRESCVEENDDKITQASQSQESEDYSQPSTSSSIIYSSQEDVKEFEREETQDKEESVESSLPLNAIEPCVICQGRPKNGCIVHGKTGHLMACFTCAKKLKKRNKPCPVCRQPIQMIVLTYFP
Procedure: The ELISA assay was performed in streptavidin coated plates which were preincubated with 200 μl per well of 1 μg ml^−1 biotinylated IP3 peptide. The plates were ready to use for MDM2 binding after washing the plate with PBS.
The unbound secondary antibody was removed by washing three times with TBS-Tween. The bound HRP activity was measured by enhanced chemiluminesence (ECL™, Amersham Biosciences) using the oxidation of the diacylhydrazide substrate, luminol, to generate a quantifiable light signal. The percentage of MDM2 inhibition at a given concentration is calculated as the [1−(RLU detected in the compound treated sample−RLU negative DMSO control)÷(RLU of DMSO positive and negative controls)]×100 or as the (RLU detected in the compound treated sample÷RLU of DMSO controls)×100. The IC50 was calculated using a plot of % MDM2 inhibition vs concentration and is the average of two or three independent experiments.
For assay [2], the system named is SJSA-1 (MDM2 amplified, p53 wild-type osteosarcoma). The experiment in a line: Protocol A: SJSA-1 growth inhibition (SRB). To be noted: Homo sapiens, SJSA-1, 72 h.
Procedure: Protocol A: SJSA-1 and SN40R2 Assays
(§1) Following incubation with the SRB dye at room temperature for 30 min, the plates were washed with 1% acetic acid and left to dry. […] The GI50 was calculated by non-linear regression analysis of the data using Prism v4.0 statistical software.
The subject of assay [3] is SN40R2 (MDM2 amplified, p53 mutated osteosarcoma). In words: Protocol A: SN40R2 growth inhibition (SRB). To be noted: 72 h; for inhibition at 30 µM: read-out: SN40R2 (Protocol A) % at concentration.
Procedure: Protocol A: SJSA-1 and SN40R2 Assays
as §1
Setting [4] is: read-out: SJSA1 IC50 (Protocol B), SJSA-1 cells, CellTiter-Glo, 72 hrs.
Setting [5] is: read-out: SN40R2 IC50 (Protocol B), SN40R2 cells, CellTiter-Glo, 72 hrs.
The mark [6] stands for this setting: read-out: SJSA-1 IC50 (Protocol A), SJSA-1 cells, SRB, 72 hrs.
[7] abbreviates: Homo sapiens, SJSA-1, 72 h, read-out: SJSA1 IC50 (Protocol B), SJSA-1 cells, CellTiter-Glo, 72 hrs.
Setting [8] is: read-out: SN40R2 IC50 (Protocol B).
Setting [9] is: read-out: SN40R2 IC50 (μM) (Protocol B).
Setting [10] is: read-out: SJSA-1 IC50 (μM) (Protocol A), SJSA-1, Protocol A (SRB), 72 hrs.
The mark [11] stands for this setting: read-out: SN40R2 IC50 (μM) (Protocol A).
Setting [12] is: Homo sapiens, SJSA-1, 72 h, read-out: SJSA1 IC50 (μM) (Protocol B), SJSA-1, Protocol B (CellTiter-Glo), 72 hrs.

Usually IC50 stands for the concentration needed to halve the response being measured.

Turning to `CO[C@]1(c2ccc(Cl)cc2)c2c(F)cc(C(C)(O)c3cn(C)c(C)n3)cc2C(=O)N1Cc1ccc(Cl)cn1` (single isomer, unassigned) [Example 162], the IC50 in the assay on SJSA-1 (setting [4]) is 0.22 µM; in the assay with SN40R2 (setting [5]), 13 µM.
As for `CC(=O)N1CCC(C(C)(O)c2cc(F)c3c(c2)C(=O)N(Cc2ccc(Cl)cn2)[C@@]3(OCC2(C#N)CC2)c2ccc(Cl)cc2)CC1` (single isomer, unassigned) [Example 301], in assay [1] (@ 0.0010 μM, read-out: MDM2 % @ concentration), the inhibition at 0.001 µM was determined as 75%. The IC50 in assay [2] (setting [6]) came to 0.07 µM; in assay [3] (read-out: SN40R2 IC50 (Protocol A)) it was 28 µM; with SJSA-1 (setting [7]), 0.036 µM; with SN40R2 (setting [8]), 12 µM.
For the molecule `CO[C@]1(c2ccc(Cl)cc2)c2c(F)cc(C(C)(O)C3CCN(C)CC3)cc2C(=O)N1Cc1ccc(Cl)cn1` (single isomer, unassigned) [Example 304], the IC50 in the assay on SN40R2 (setting [5]) was determined as 9 µM.
Consider `CO[C@]1(c2ccc(Cl)cc2)c2c(F)cc(C(C)(O)C3CN(C)C3)cc2C(=O)N1Cc1ccc(Cl)cn1` (single isomer, unassigned) [Example 307], for which the IC50 with SJSA-1 (setting [7]) stood at 1.9 µM; in the assay on SN40R2 (setting [5]), 11 µM.
With `CC(O)(c1cc(F)c2c(c1)C(=O)N(Cc1ccc(Cl)cn1)[C@@]2(OCC1(C#N)CC1)c1ccc(Cl)cc1)C1CCN(CCO)CC1` (single isomer, unassigned) [Example 420], the IC50 turned out to be 0.87 µM in the assay with SJSA-1 (setting [7]) and 4.4 µM in the assay with SN40R2 (setting [8]).
Consider `CO[C@]1(c2ccc(Cl)cc2)c2c(F)cc(C(C)(O)c3cnn(C4CN(C(=O)OC(C)(C)C)C4)c3)cc2C(=O)N1Cc1ccc(Cl)cn1` (single isomer, unassigned) [Example 458], for which the IC50 in the assay on SN40R2 (setting [9]) was found to be 12 µM.
For the molecule `CCC(O)(c1cc(F)c2c(c1)C(=O)N(Cc1ncc(Cl)cn1)[C@@]2(O[C@H]1CCOC1)c1ccc(Cl)cc1)C1(F)CCNCC1` (single isomer, unassigned) [Example 541], the IC50 in assay [2] (setting [10]) was determined as 0.19 µM; in assay [3] (setting [11]), 13 µM; with SN40R2 (setting [9]), 10 µM.
For `CCC(O)(c1cc(F)c2c(c1)C(=O)N(Cc1ncc(Cl)cn1)[C@@]2(OC)c1ccc(Cl)cc1)C1(F)CCNCC1` (single isomer, unassigned) [Example 544], the IC50 in assay [2] (setting [10]) was determined as 0.032 µM; in assay [3] (setting [11]) it was 7.4 µM; in the assay with SJSA-1 (setting [12]), 0.041 µM.
As to `CCC(O)(c1cc(F)c2c(c1)C(=O)N(Cc1ccc(Cl)cn1)[C@@]2(O[C@H]1CCOC1)c1ccc(Cl)cc1)C1(F)CCNCC1` (single isomer, unassigned) [Example 548], the IC50 in assay [2] (setting [10]) came out at 0.14 µM; in assay [3] (setting [11]), 6.3 µM; with SJSA-1 (setting [12]), 0.17 µM.
For `CCC(O)(c1cc(F)c2c(c1)C(=O)N(Cc1ncc(Cl)cn1)[C@@]2(OC)c1ccc(Cl)cc1)C1(F)CCN(C2COC2)CC1` (single isomer, unassigned) [Example 552], in that order: 0.028 µM, 21 µM and 0.02 µM.
For the molecule `CN1CCC(C(C)(O)c2cc(F)c3c(c2)C(=O)N(Cc2ncc(Cl)cn2)[C@@]3(OCC2(F)COC2)c2ccc(Cl)cc2)CC1` (single isomer, unassigned) [Example 558], the IC50 in assay [2] (setting [10]) turned out to be 0.22 µM; in assay [3] (setting [11]) it was 35 µM; with SJSA-1 (setting [12]), 0.082 µM.
The matching figures for `CCC(O)(c1cc(F)c2c(c1)C(=O)N(Cc1ncc(C#N)cn1)[C@@]2(O[C@H]1CCOC1)c1ccc(Cl)cc1)C1(F)CCN(C)CC1` (single isomer, unassigned) [Example 561]: 0.021 µM, 26 µM and 0.065 µM.
For `CCC(O)(c1cc(F)c2c(c1)C(=O)N(Cc1ncc(Cl)cn1)[C@@]2(OCCO)c1ccc(Cl)cc1)C1(F)CCN(C)CC1` (single isomer, unassigned) [Example 565], the figures for the IC50 (in assay [2] (setting [10]); in assay [3] (setting [11]); in the assay on SJSA-1 (setting [12])) were 0.045 µM, 33 µM and 0.035 µM, respectively.
For `CCC(O)(c1cc(F)c2c(c1)C(=O)N(Cc1ncc(Cl)cn1)[C@@]2(O[C@H]1CCOC1)c1ccc(Cl)cc1)C1(F)CCN(C)CC1` (single isomer, unassigned) [Example 571], in that order: 0.023 µM, 17 µM and 0.0085 µM.
Consider `CCC(O)(c1cc(F)c2c(c1)C(=O)N(Cc1ncc(C#N)cn1)[C@@]2(OCC1(C#N)CC1)c1ccc(Cl)cc1)C1(F)CCN(C)CC1` (single isomer, unassigned) [Example 574], for which the IC50 in assay [2] (setting [10]) worked out at 0.021 µM; in assay [3] (setting [11]) it was 17 µM; in the assay with SJSA-1 (setting [12]) it was 0.016 µM.
As for `CCC(O)(c1cc(F)c2c(c1)C(=O)N(Cc1ncc(C#N)cn1)[C@@]2(OC)c1ccc(Cl)cc1)C1(F)CCN(C)CC1` (single isomer, unassigned) [Example 575], the IC50 in assay [2] (setting [10]) was 0.028 µM; in assay [3] (setting [11]), 21 µM; with SJSA-1 (setting [12]) it was 0.066 µM.
On to `[2H]C([2H])(O)C1(C([2H])([2H])O[C@]2(c3ccc(Cl)cc3)c3c(F)cc(C(C)(C)O)cc3C(=O)N2Cc2ccc(C#N)cn2)CC1` [Example 5, 6-{[(1R)-1-(4-Chlorophenyl)-7-fluoro-1-({1-[hydroxy(^2H2)methyl]cyclopropyl}(^2H2)methoxy)-5-(2-hydroxypropan-2-yl)-3-oxo-2,3-dihydro-1H-isoindol-2-yl]methyl}pyridine-3-carbonitrile], for which the IC50 was found to be 3.8 nM in assay [1], 0.2 µM in assay [2] (setting [6]) and 0.28 µM in the assay on SJSA-1 (setting [7]). Also, in assay [3], the inhibition at 30 µM came to 20%.
As for `CC(C)(O)c1cc(F)c2c(c1)C(=O)N(Cc1ccc(C#N)cn1)[C@@]2(OCC1(CO)CC1)c1ccc(Cl)cc1` [Example 36, 6-{[(1R)-1-(4-chlorophenyl)-7-fluoro-1-{[1-(hydroxymethyl)cyclopropyl]methoxy}-5-(2-hydroxypropan-2-yl)-3-oxo-2,3-dihydro-1H-isoindol-2-yl]methyl}pyridine-3-carbonitrile], the IC50 stood at 5.1 nM in assay [1], 0.21 µM in assay [2] (setting [6]) and 0.18 µM in the assay with SJSA-1 (setting [7]). Also, the inhibition at 30 µM in assay [3] is 13%.
Turning to `CO[C@]1(c2ccc(Cl)cc2)c2c(F)cc(C(C)(O)c3ncc[nH]3)cc2C(=O)N1Cc1ccc(Cl)cn1` (stereo partly drawn) [Example 163, (3R)-3-(4-chlorophenyl)-2-[(5-chloropyridin-2-yl)methyl]-4-fluoro-6-[1-hydroxy-1-(1H-imidazol-2-yl)ethyl]-3-methoxy-2,3-dihydro-1H-isoindol-1-one], the figures for the IC50 in the assay on SJSA-1 (setting [7]) and in the assay on SN40R2 (setting [5]) were 3.1 µM and 13 µM, respectively.
`CO[C@]1(c2ccc(Cl)cc2)c2c(F)cc(C(C)(O)c3nccs3)cc2C(=O)N1Cc1ccc(Cl)cn1` (stereo partly drawn) [Example 165, (3R)-3-(4-Chlorophenyl)-2-[(5-chloropyridin-2-yl)methyl]-4-fluoro-6-[1-hydroxy-1-(1,3-thiazol-2-yl)ethyl]-3-methoxy-2,3-dihydro-1H-isoindol-1-one]: the IC50 with SJSA-1 (setting [4]) was 1.4 µM; in the assay on SN40R2 (setting [5]), 13 µM.
In the case of `CO[C@]1(c2ccc(Cl)cc2)c2c(F)cc(C(C)(O)C3CCN(c4ncccn4)CC3)cc2C(=O)N1Cc1ccc(Cl)cn1` (stereo partly drawn) [Example 286, (3R)-3-(4-chlorophenyl)-2-[(5-chloropyridin-2-yl)methyl]-4-fluoro-6-{1-hydroxy-1-[1-(pyrimidin-2-yl)piperidin-4-yl]ethyl}-3-methoxy-2,3-dihydro-1H-isoindol-1-one], the IC50 with SN40R2 (setting [5]) amounted to 12 µM.
Take `CO[C@]1(c2ccc(Cl)cc2)c2c(F)cc(C(C)(O)C3CCN(C(=O)CN(C)C)CC3)cc2C(=O)N1Cc1ccc(Cl)cn1` (stereo partly drawn) [Example 299, (3R)-3-(4-chlorophenyl)-2-[(5-chloropyridin-2-yl)methyl]-6-(1-{1-[2-(dimethylamino)acetyl]piperidin-4-yl}-1-hydroxyethyl)-4-fluoro-3-methoxy-2,3-dihydro-1H-isoindol-1-one]: the IC50 was 2 µM in the assay with SJSA-1 (setting [7]) and 8 µM with SN40R2 (setting [5]).
Consider `CCC(O)(c1cc(F)c2c(c1)C(=O)N(Cc1ncc(C#N)cn1)[C@@]2(OC)c1ccc(Cl)cc1)[C@H]1CC[C@H](O)CC1` (stereo partly drawn) [Example 504, 2-{[(1R)-1-(4-chlorophenyl)-7-fluoro-5-{1-hydroxy-1-[trans-4-hydroxycyclohexyl]propyl}-1-methoxy-3-oxo-2,3-dihydro-1H-isoindol-2-yl]methyl}pyrimidine-5-carbonitrile], for which the IC50 turned out to be 0.039 µM in assay [2] (setting [10]), 48 µM in assay [3] (setting [11]) and 0.034 µM in the assay with SJSA-1 (setting [12]).
On to `CC[C@@](O)(c1cc(F)c2c(c1)C(=O)N(Cc1ncc(Cl)cn1)[C@@]2(OCC1(CO)CC1)c1ccc(Cl)cc1)C1CCN(C)CC1` [Example 556, (3R)-3-(4-chlorophenyl)-2-[(5-chloropyrimidin-2-yl)methyl]-4-fluoro-6-[(1S)-1-hydroxy-1-(1-methylpiperidin-4-yl)propyl]-3-{[1-(hydroxymethyl)cyclopropyl]methoxy}-2,3-dihydro-1H-isoindol-1-one], for which the IC50 is 0.056 µM in assay [2] (setting [10]), 27 µM in assay [3] (setting [11]) and 0.0064 µM with SJSA-1 (setting [12]).
